According to ChEMBL document CHEMBL1201862, “PubChem BioAssay data set” (2004):
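Dose response: 5 concentrations. Exposure: 48 h. Format: 96-well plates. Endpoint: linear interpolation; highest concentration if not reached. Abbreviation: GI50, concentration required for 50% inhibition of growth.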 Calls of active or inactive are those of the source. No stated cut-off is given here; in the data, active = GI50 up to about 1.1 µM and inactive = higher.

What was measured:
Assay in all cases: NCI tumour cell line growth inhibition, 48 h
TK-10 = system: TK-10
Hs-578T = system: Hs-578T
NCI-H23 = system: NCI-H23
A498 = system: A498
M14 = system: M14
CCRF-CEM = system: CCRF-CEM
SK-OV-3 = system: SK-OV-3
OVCAR-4 = system: OVCAR-4
HCT-15 = system: HCT-15
A549 = system: A549
K562 = system: K562
COLO 205 = system: COLO 205
SK-MEL-2 = system: SK-MEL-2
HCT-116 = system: HCT-116
IGROV-1 = system: IGROV-1
UACC-257 = system: UACC-257
OVCAR-8 = system: OVCAR-8
786-0 = system: 786-0
SF-268 = system: SF-268
RXF 393 = system: RXF 393
KM12 = system: KM12
NCI-H460 = system: NCI-H460
SN12C = system: SN12C
LOX IMVI = system: LOX IMVI
SNB-19 = system: SNB-19
U-251 = system: U-251
RPMI-8226 = system: RPMI-8226
NCI-H522 = system: NCI-H522
MDA-MB-435 = system: MDA-MB-435
CAKI-1 = system: CAKI-1
SF-295 = system: SF-295
MDA-N = system: MDA-N
SR = system: SR
NCI/ADR-RES = system: NCI/ADR-RES
HOP-62 = system: HOP-62
SW-620 = system: SW-620
MCF7 = system: MCF7
MDA-MB-231 = system: MDA-MB-231
ACHN = system: ACHN
SNB-75 = system: SNB-75
MOLT-4 = system: MOLT-4
HOP-92 = system: HOP-92
OVCAR-5 = system: OVCAR-5
DU-145 = system: DU-145
T47D = system: T47D
SK-MEL-28 = system: SK-MEL-28
OVCAR-3 = system: OVCAR-3
SK-MEL-5 = system: SK-MEL-5
HL-60 = system: HL-60
UACC-62 = system: UACC-62
BT-549 = system: BT-549
UO-31 = system: UO-31
EKVX = system: EKVX
Malme-3M = system: Malme-3M
HT-29 = system: HT-29
PC-3 = system: PC-3

Q: Which results are given for `CS(=O)(=O)OC1CN2CCC1CC2` (stereo unspecified)?
A: GI50 (TK-10): > 100 µM (inactive); GI50 (Hs-578T): > 100 µM (inactive); GI50 (NCI-H23): > 100 µM (inactive); GI50 (A498): > 100 µM (inactive); GI50 (M14): > 100 µM (inactive); GI50 (CCRF-CEM): > 100 µM (inactive); GI50 (SK-OV-3): > 100 µM (inactive); GI50 (OVCAR-4): > 100 µM (inactive); GI50 (HCT-15): > 100 µM; GI50 (A549): > 100 µM (inactive); GI50 (K562): > 100 µM (inactive); GI50 (COLO 205): > 100 µM (inactive); GI50 (SK-MEL-2): > 100 µM (inactive); GI50 (HCT-116): > 100 µM (inactive); GI50 (IGROV-1): > 100 µM (inactive); GI50 (UACC-257): > 100 µM (inactive); GI50 (OVCAR-8): > 100 µM (inactive); GI50 (786-0): > 100 µM (inactive); GI50 (SF-268): > 100 µM (inactive); GI50 (RXF 393): > 100 µM (inactive); GI50 (KM12): > 100 µM (inactive); GI50 (NCI-H460): > 100 µM (inactive); GI50 (SN12C): > 100 µM (inactive); GI50 (LOX IMVI): > 100 µM (inactive); GI50 (SNB-19): > 100 µM (inactive); GI50 (U-251): > 100 µM (inactive); GI50 (RPMI-8226): > 100 µM (inactive); GI50 (NCI-H522): > 100 µM (inactive); GI50 (MDA-MB-435): > 100 µM (inactive); GI50 (CAKI-1): > 100 µM (inactive); GI50 (SF-295): > 100 µM (inactive); GI50 (MDA-N): > 100 µM (inactive); GI50 (SR): > 100 µM (inactive); GI50 (NCI/ADR-RES): > 100 µM (inactive); GI50 (HOP-62): > 100 µM (inactive); GI50 (SW-620): > 100 µM (inactive); GI50 (MCF7): > 100 µM (inactive); GI50 (MDA-MB-231): > 100 µM (inactive); GI50 (ACHN): > 100 µM (inactive); GI50 (SNB-75): > 100 µM (inactive); GI50 (MOLT-4): > 100 µM (inactive); GI50 (HOP-92): > 100 µM (inactive); GI50 (OVCAR-5): > 100 µM (inactive); GI50 (DU-145): > 100 µM (inactive); GI50 (T47D): > 100 µM (inactive); GI50 (SK-MEL-28): > 100 µM (inactive); GI50 (OVCAR-3): > 100 µM (inactive); GI50 (SK-MEL-5): > 100 µM (inactive); GI50 (HL-60): > 100 µM (inactive); GI50 (UACC-62): > 100 µM (inactive); GI50 (BT-549): > 100 µM (inactive); GI50 (UO-31): > 100 µM (inactive); GI50 (EKVX): > 100 µM (inactive); GI50 (Malme-3M): > 100 µM (inactive); GI50 (HT-29): > 100 µM (inactive); GI50 (PC-3): > 100 µM (inactive)
